Data from ChEMBL document CHEMBL1201862, “PubChem BioAssay data set” (2004).
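Results reflect a 48-hour exposure of cells in 96-well plates to compound at five concentrations. Here, GI50 denotes the concentration required for 50% inhibition of growth.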 Active and inactive are the calls of the source. No stated cut-off is given here; in the data, active = GI50 up to about 1.1 µM and inactive = higher.

Assays:
Assay in all cases: DTP human tumour cell line panel, 48 h
ACHN = tested on: ACHN
CAKI-1 = tested on: CAKI-1
EKVX = tested on: EKVX
NCI-H226 = tested on: NCI-H226
NCI-H460 = tested on: NCI-H460
OVCAR-4 = tested on: OVCAR-4
RPMI-8226 = tested on: RPMI-8226
SK-MEL-5 = tested on: SK-MEL-5
SK-OV-3 = tested on: SK-OV-3
SNB-19 = tested on: SNB-19
T47D = tested on: T47D
TK-10 = tested on: TK-10
U-251 = tested on: U-251
HOP-62 = tested on: HOP-62
HT-29 = tested on: HT-29
Malme-3M = tested on: Malme-3M
OVCAR-3 = tested on: OVCAR-3
SN12C = tested on: SN12C

Measured: GI50

CCC1OC2C(CC=C(C)C)=C3OC(C)(O)C(C)(CC)C(O)C3=C3OC(=O)C=C1C32 (stereo not given)
inactive: ACHN 38.3 µM | CAKI-1 > 100 µM | EKVX 35.6 µM | NCI-H226 55.1 µM | NCI-H460 21.4 µM | OVCAR-4 36.2 µM | RPMI-8226 31.6 µM | SK-MEL-5 28.4 µM | SK-OV-3 > 100 µM | SNB-19 54.6 µM | T47D 29 µM | TK-10 70.6 µM | U-251 58.9 µM

O=[N+]([O-])c1ccc(Cc2nc3cc4ccccc4cc3[nH]2)cc1C(F)(F)F
inactive: ACHN 15.8 µM | CAKI-1 11.6 µM | EKVX 25.8 µM | HOP-62 13.8 µM | HT-29 14.3 µM | Malme-3M 9.79 µM | NCI-H460 7.82 µM | OVCAR-3 10.7 µM | OVCAR-4 17.5 µM | SK-MEL-5 10.7 µM | SK-OV-3 13.5 µM | SN12C 18.7 µM | SNB-19 15.6 µM | T47D 3.33 µM | TK-10 20.2 µM | U-251 14.8 µM

CC1=NN(c2nc(N)nc(CC#N)n2)C(C)(C)C1
inactive: ACHN > 100 µM | CAKI-1 > 100 µM | EKVX > 100 µM | HOP-62 > 100 µM | HT-29 > 100 µM | NCI-H226 > 100 µM | NCI-H460 > 100 µM | OVCAR-4 > 100 µM | RPMI-8226 > 100 µM | SK-MEL-5 > 100 µM | SK-OV-3 > 100 µM | SNB-19 > 100 µM | T47D > 100 µM | TK-10 > 100 µM | U-251 > 100 µM

c1ccc2sc(SCN(C3CCCCC3)C3CCCCC3)nc2c1
inactive: ACHN > 100 µM | CAKI-1 > 100 µM | EKVX > 100 µM | HOP-62 > 100 µM | HT-29 > 100 µM | Malme-3M > 100 µM | NCI-H226 > 100 µM | NCI-H460 > 100 µM | OVCAR-3 > 100 µM | OVCAR-4 > 100 µM | SK-MEL-5 > 100 µM | SNB-19 > 100 µM | T47D 15.1 µM | TK-10 > 100 µM | U-251 > 100 µM

CSC1(CC(=O)N(C)C)C(=O)Nc2ccccc21 (stereo not given)
inactive: ACHN > 100 µM | EKVX > 100 µM | HOP-62 > 100 µM | HT-29 > 100 µM | Malme-3M > 100 µM | NCI-H226 > 100 µM | NCI-H460 > 100 µM | OVCAR-3 > 100 µM | OVCAR-4 > 100 µM | RPMI-8226 > 100 µM | SK-MEL-5 > 100 µM | SK-OV-3 > 100 µM | SNB-19 > 100 µM | T47D > 100 µM | TK-10 > 100 µM | U-251 > 100 µM
